In ChEMBL document CHEMBL5465560, “Selectivity Literature for EUbOPEN Chemogenomic Library” (2024):

Assays:
[1] = molecular target: Ephrin type-A receptor 5 (Homo sapiens) (UniProt P54756); settings: at 10 µM
[2] = molecular target: Protein arginine N-methyltransferase 8 (Homo sapiens, UniProt Q9NR22); test: Selectivity interaction (Methyltransferase screen (radiometric assays, panel of 8 PRMTs, 21 protein lysine methyltransferases, 3 DNA methyltransferases, and one RNA methyltransferase)) EUB0000272b PRMT8
Sequence of Protein arginine N-methyltransferase 8 (Q9NR22 2-394 limits assumed): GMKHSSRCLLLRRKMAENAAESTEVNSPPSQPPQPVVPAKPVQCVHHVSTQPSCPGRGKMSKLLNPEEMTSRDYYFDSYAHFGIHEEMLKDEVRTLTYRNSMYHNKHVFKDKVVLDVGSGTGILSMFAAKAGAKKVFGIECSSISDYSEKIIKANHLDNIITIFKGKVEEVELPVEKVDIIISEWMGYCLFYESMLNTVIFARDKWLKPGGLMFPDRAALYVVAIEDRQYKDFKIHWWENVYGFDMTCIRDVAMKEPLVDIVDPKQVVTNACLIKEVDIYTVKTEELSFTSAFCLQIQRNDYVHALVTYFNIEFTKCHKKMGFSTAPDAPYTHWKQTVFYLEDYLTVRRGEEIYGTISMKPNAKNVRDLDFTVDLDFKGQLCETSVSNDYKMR

[3] = molecular target: Histone-lysine N-methyltransferase SETDB1 (Homo sapiens) (UniProt Q15047); test: Selectivity interaction (Methyltransferase screen (Scintillation proximity assays)) EUB0000255b SETDB1
[4] = system: Epidermal growth factor receptor (Homo sapiens), P00533 [UNDEFINED MUTATION]; test: Selectivity interaction (KinomeScan (DiscoverX)) EUB0000655a EGFR; settings: at 10 µM
[5] = molecular target: Vascular endothelial growth factor receptor 2 (Homo sapiens, UniProt P35968); test: Selectivity interaction (KinomeScan (DiscoverX)) EUB0000655a KDR; settings: at 10 µM
Sequence of Vascular endothelial growth factor receptor 2 (P35968 whole entry): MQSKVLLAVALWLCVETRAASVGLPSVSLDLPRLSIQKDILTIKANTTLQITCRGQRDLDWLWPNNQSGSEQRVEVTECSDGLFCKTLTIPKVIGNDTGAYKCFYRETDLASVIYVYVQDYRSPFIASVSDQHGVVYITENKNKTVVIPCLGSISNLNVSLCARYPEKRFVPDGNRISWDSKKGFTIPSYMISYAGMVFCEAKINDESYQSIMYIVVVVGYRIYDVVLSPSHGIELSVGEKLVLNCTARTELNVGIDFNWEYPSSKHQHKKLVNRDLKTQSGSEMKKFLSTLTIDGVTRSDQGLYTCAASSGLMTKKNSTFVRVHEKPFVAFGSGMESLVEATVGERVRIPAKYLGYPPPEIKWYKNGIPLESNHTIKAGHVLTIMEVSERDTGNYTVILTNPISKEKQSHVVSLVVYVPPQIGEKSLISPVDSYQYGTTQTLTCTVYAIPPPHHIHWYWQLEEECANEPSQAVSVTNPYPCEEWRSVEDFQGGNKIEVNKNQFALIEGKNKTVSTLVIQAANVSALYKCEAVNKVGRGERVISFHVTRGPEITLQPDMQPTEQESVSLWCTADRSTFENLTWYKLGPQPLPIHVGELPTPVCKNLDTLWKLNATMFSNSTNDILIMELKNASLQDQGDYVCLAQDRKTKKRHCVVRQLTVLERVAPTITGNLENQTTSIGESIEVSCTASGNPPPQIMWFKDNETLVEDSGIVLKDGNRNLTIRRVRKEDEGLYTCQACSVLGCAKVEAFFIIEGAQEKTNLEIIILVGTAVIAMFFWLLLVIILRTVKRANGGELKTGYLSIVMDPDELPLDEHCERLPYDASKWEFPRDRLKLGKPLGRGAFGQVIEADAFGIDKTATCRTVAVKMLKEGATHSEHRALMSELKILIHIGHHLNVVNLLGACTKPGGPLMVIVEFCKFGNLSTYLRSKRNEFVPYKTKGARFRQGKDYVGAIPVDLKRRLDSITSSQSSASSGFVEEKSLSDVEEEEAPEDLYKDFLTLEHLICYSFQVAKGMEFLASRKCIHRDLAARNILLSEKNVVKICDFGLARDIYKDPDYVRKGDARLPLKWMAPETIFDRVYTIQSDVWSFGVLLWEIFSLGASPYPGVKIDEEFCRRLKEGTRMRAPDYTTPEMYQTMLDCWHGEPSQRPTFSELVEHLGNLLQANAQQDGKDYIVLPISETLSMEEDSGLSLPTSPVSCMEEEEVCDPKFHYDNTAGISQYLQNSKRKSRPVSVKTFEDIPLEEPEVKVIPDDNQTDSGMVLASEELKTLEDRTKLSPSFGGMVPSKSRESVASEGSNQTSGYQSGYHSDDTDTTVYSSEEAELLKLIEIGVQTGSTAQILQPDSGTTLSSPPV

[6] = molecular target: Mitogen-activated protein kinase kinase kinase 14 (Homo sapiens) (UniProt Q99558); test: Selectivity interaction (KinomeScan (DiscoverX)) EUB0001079a MAP3K14; settings: at 1 µM
[7] = molecular target: T1, Cyclin-dependent kinase 11A (Homo sapiens) (UniProt Q9UQ88); test: Selectivity interaction (KinomeScan (DiscoverX)) EUB0000607a CDK11A; settings: at 10 µM
T1 sequence (whole entry): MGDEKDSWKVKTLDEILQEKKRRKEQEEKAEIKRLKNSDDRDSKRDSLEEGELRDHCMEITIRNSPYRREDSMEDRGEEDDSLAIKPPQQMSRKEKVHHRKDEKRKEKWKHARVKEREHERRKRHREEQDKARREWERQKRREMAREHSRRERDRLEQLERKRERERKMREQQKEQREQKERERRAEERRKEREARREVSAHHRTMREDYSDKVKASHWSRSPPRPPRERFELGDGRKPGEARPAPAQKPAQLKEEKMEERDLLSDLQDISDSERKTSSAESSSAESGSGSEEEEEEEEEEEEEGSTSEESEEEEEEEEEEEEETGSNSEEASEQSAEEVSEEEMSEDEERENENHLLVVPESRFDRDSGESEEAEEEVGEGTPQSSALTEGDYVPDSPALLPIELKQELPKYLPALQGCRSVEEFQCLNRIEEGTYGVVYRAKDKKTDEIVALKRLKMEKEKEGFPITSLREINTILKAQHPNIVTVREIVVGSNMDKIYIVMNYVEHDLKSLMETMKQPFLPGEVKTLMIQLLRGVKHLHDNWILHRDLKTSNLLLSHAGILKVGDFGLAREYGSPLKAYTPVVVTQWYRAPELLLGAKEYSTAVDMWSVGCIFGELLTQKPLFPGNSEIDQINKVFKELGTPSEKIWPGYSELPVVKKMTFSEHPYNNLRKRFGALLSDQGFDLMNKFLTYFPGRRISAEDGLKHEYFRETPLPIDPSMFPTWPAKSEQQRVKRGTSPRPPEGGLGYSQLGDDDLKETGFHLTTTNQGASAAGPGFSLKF

[8] = system: Proto-oncogene tyrosine-protein kinase receptor Ret (Homo sapiens), P07949 [V804L]; test: Selectivity interaction (KinomeScan (DiscoverX)) EUB0000045b RET
Sequence of Proto-oncogene tyrosine-protein kinase receptor Ret (Homo sapiens), P07949 [V804L] (P07949 whole entry V804L): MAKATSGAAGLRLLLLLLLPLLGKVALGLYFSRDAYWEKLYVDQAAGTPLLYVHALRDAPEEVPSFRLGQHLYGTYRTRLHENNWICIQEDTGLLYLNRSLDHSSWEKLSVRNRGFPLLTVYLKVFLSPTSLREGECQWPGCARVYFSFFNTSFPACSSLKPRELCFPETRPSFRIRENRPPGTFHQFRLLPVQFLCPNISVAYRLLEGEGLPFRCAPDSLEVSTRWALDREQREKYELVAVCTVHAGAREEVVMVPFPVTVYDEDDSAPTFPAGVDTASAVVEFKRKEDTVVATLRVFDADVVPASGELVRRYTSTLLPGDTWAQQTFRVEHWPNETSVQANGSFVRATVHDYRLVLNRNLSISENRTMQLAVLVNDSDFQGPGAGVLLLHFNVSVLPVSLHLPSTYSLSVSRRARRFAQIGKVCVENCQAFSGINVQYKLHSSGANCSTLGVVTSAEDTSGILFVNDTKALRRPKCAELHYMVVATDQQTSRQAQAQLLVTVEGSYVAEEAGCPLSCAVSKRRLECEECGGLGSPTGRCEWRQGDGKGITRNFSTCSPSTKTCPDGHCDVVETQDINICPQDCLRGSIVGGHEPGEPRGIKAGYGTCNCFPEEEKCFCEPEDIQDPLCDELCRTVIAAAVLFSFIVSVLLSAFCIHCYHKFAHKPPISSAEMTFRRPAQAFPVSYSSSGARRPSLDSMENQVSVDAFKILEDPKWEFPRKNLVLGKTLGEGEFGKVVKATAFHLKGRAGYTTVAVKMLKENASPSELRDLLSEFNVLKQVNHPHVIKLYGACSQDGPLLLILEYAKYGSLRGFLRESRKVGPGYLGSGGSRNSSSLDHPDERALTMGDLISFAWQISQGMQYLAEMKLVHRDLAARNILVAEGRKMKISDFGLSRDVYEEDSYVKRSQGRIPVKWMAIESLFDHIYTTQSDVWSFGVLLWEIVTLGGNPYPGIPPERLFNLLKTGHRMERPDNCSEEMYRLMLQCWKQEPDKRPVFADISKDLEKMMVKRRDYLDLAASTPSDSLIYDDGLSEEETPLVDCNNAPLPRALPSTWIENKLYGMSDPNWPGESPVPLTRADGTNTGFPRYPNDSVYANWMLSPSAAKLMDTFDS

[9] = molecular target: T1, Cyclin-dependent kinase 11A (Homo sapiens); settings: at 10 µM
[10] = system: Epidermal growth factor receptor (Homo sapiens), P00533 [G719C]; settings: at 10 µM
[11] = molecular target: T2, Homeodomain-interacting protein kinase 4 (Homo sapiens) (UniProt Q8NE63); settings: at 10 µM
T2 sequence (whole entry): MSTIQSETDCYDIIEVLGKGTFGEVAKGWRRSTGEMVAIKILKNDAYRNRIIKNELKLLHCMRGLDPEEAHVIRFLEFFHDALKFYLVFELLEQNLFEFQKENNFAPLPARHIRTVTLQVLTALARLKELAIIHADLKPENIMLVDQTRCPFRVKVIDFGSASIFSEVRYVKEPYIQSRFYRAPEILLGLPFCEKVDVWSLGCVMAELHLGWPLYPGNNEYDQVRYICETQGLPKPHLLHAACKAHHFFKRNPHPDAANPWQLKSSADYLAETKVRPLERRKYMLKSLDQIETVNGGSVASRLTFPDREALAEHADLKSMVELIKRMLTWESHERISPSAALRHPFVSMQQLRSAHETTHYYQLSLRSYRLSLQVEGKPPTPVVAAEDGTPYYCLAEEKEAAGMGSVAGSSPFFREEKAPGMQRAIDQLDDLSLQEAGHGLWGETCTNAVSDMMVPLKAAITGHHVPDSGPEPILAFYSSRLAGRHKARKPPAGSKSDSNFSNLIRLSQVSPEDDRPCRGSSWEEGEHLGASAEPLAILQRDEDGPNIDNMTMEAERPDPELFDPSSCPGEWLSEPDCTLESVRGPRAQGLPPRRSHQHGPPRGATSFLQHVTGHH

[12] = molecular target: Serine/threonine-protein kinase 26 (Homo sapiens, UniProt Q9P289); test: Selectivity interaction (ActivX KiNativ screen (kinase selectivity in THP-1 cell lysates)) EUB0000639a STK26; format: subcellular; settings: lysate, at 5 µM
[13] = molecular target: Mitogen-activated protein kinase 14 (Homo sapiens, UniProt Q16539); test: Selectivity interaction (KinomeScan (DiscoverX)) EUB0001049a MAPK14; settings: at 1 µM
[14] = molecular target: Tyrosine-protein kinase JAK2 (Homo sapiens, UniProt O60674); test: Selectivity interaction (KinomeScan (DiscoverX)) EUB0000092b JAK2; settings: at 10 µM
Sequence of Tyrosine-protein kinase JAK2 (O60674 whole entry): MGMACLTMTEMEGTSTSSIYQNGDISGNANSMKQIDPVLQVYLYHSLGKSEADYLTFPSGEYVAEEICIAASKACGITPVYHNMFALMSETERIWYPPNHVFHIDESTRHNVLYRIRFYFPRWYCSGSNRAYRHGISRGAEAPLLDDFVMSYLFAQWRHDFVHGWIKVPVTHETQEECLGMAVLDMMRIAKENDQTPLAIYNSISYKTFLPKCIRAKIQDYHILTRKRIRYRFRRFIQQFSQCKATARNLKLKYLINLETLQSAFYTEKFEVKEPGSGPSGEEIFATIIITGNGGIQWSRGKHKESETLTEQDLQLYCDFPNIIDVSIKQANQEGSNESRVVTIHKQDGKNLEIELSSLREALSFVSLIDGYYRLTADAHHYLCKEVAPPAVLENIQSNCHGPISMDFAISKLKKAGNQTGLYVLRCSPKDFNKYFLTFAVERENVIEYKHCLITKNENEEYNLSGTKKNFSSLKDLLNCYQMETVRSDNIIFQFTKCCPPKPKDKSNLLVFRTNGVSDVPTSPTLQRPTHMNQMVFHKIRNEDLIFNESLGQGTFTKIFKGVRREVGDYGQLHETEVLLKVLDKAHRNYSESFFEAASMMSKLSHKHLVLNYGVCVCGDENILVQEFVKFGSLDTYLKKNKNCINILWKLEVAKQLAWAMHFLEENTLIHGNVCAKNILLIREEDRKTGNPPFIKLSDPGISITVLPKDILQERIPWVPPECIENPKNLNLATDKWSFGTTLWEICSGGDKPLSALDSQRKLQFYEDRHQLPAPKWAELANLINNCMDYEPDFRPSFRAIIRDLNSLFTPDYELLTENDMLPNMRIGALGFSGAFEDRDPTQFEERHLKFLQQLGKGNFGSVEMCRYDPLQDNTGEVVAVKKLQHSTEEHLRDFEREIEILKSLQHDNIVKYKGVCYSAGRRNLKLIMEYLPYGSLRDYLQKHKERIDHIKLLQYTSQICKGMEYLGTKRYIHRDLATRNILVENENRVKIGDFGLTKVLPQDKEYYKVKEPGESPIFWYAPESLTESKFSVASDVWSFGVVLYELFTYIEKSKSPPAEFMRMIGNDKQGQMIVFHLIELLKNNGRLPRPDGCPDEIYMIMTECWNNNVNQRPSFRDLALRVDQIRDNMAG

[15] = molecular target: Ribosomal protein S6 kinase alpha-5 (Homo sapiens) (UniProt O75582); test: Selectivity interaction (Kinase screening (Nanosyn)) EUB0000604a RPS6KA5

Sequence of Ephrin type-A receptor 5 (Homo sapiens) (P54756 whole entry): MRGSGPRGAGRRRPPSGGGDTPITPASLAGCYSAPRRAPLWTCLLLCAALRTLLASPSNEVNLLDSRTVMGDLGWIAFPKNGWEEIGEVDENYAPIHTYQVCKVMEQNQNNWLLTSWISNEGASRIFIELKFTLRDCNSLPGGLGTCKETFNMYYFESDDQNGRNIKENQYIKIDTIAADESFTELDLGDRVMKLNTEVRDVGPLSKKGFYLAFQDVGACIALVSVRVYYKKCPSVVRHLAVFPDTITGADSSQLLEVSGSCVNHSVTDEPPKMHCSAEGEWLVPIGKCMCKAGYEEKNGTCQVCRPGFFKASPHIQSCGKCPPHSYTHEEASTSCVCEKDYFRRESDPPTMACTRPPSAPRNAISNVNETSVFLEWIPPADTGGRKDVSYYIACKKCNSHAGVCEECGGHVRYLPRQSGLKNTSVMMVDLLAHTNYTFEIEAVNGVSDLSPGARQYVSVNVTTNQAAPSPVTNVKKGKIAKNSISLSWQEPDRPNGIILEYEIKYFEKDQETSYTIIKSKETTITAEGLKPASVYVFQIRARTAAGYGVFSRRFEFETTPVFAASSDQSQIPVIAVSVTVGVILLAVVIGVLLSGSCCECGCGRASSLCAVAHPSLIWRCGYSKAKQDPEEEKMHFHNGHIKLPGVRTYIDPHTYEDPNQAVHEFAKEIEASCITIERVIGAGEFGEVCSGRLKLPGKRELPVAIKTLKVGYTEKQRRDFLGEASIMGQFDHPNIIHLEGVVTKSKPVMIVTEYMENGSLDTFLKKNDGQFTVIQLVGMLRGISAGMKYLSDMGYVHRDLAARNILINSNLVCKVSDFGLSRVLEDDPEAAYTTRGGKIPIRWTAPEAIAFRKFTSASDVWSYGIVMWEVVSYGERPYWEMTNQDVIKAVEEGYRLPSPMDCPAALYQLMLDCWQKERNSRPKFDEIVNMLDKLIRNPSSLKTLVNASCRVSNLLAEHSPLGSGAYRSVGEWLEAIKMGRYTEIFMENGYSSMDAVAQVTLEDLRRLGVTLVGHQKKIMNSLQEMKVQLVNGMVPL

CCN(CC)CCCCNc1ncc2cc(-c3cc(OC)cc(OC)c3)c(NC(=O)NC(C)(C)C)nc2n1
% of control [1]: 100%

Cc1cc(C)cc([C@H]2c3cc(C)ccc3NC(=O)CN2C(=O)c2ccc(Br)s2)c1
% of activity ([2]; at 1 µM): 100% | % of activity ([2]; at 10 µM): 96.7%

COCCN1CCC(c2cc(CN(C)C(=O)c3cccc(Oc4ccccc4)c3)ccn2)CC1
% activity ([3]; at 1 µM): > 95% | % activity ([3]; at 10 µM): > 90%

CN(C)CCOc1ccc(-c2nc(-c3ccncc3)c(-c3ccc4c(c3)CC/C4=N\O)[nH]2)cc1
% of control [4]: 67% | % of control [5]: 100%

Nc1cnc(N2CCc3cc(S(=O)(=O)Nc4c(F)cc(Cl)cc4F)cc(N4CCCC4=O)c32)nc1 [TP-020n]
% of control [6]: 75%

CNC(=O)Nc1ccc(-c2nc(N3CC4CCC(C3)O4)c3cnn(C4CCC5(CC4)OCCO5)c3n2)cc1
% of control [7]: 100%

C=CC(=O)Nc1cc(-n2c(=O)ccc3cnc4ccc(-c5ccc(NS(C)(=O)=O)cc5)cc4c32)ccc1C
% of control ([8]; at 1 µM): 79% | % of control ([8]; at 10 µM): 100%

Cc1cc([C@@H](C)Nc2ccccc2C(=O)O)c2nc(N3CCOCC3)cc(=O)n2c1 [AZD-6482]
% of control [9]: 91% | % of control [10]: 95% | % of control [11]: 100%

CC[C@@H]1[C@H](F)C(=O)N[C@@H]1COc1nccc2cc(C(N)=O)c(OC)cc12 [ZIMLOVISERTIB]
% of inhibition [12]: 21.8%

COc1cc(Nc2nc(C)cc(-c3cnn4nc(OC)ccc34)n2)cc(C(F)(F)F)c1
% of control [13]: 87%

CCC(=O)N1CCN(c2ccc(-n3c(=O)ccc4cnc5ccc(-c6cnc7ccccc7c6)cc5c43)cc2C(F)(F)F)CC1
% of control [14]: 65%

Cc1cnc(Nc2ccc(F)cc2Cl)nc1-c1c[nH]c(C(=O)N[C@H](CO)c2cccc(Cl)c2)c1
% of inhibition [15]: 7%
